From article PMC8068361, “Design and Synthesis of a Novel PLK1 Inhibitor Scaffold Using a Hybridized 3D-QSAR Model” (International Journal of Molecular Sciences, 2021)
Read-outs that look alike come from different tables or passages of the source. One block for each molecule: values may come before it.

Experiments:
PLK1(h) = target: T1, PLK1(h) (Homo sapiens, UniProt P53350); test: PLK1 kinase IC50, Reaction Biology IC50 Profiler Express, 33P-ATP radiometric; type: biochemical; conditions: enzymatic; ATP 10 μM, casein substrate
T1 construct: purchased Reaction Biology Corp

PLK1 [1] = target: T2, PLK1 (Homo sapiens, UniProt P53350); set-up: method as in ref 18 (a number printed in a supplementary file, which may have a reference list of its own: not looked up in the article's list); conditions: Table S1, Plk1, cited from earlier work; for Activity pIC50: pIC50 = −log IC50
T2 construct: purchased Reaction Biology Corp

PLK1 [2] = target: T2, PLK1; test: Kinase panel screen (Kinase HotSpot), single dose 10 µM: PLK1; type: biochemical; conditions: duplicate, read-out: inhibitory activity against PLK1
Protocol: (§1) Assay protocol: In a final reaction volume of 25 μL, substrate[Casein], 1 μM, ATP 10 μM, PLK1(h) (5–10 mU) is incubated with 25 mM Tris pH 7.5, 0.02 mM EGTA, 0.66 mg/mL myelin basic protein, 10 mM Mg acetate, and [^33P-ATP] (specific activity approx. 500 cpm/pmol, concentration as required). The reaction is initiated by addition of the Mg-ATP mix. After incubation for 40 min at room temperature, the reaction is stopped by addition of 5 μL of a 3% phosphoric acid solution. […] The 30 selected protein kinases were ABL1, AKT1, ALK, Aurora A, AXL, AXL (R499C), BRAF (V599E), BTK, c-MER, c-MET, c-Src, CAMKK1, CDK1/cyclin A, EGFR, ERK1, FGFR3, FYN, IGF1R, JAK3, KDR/VEGFR2, LCK, LYN, MEK1, PKA, PLK1, PLK2, PLK3, PLK4/SAK, SYK, and TYRO3/SKY4.

PLK2 = target: T3, PLK2 (Homo sapiens, UniProt Q9NYY3); test: Kinase panel screen (Kinase HotSpot), single dose 10 µM: PLK2; type: biochemical
T3 construct: purchased Reaction Biology Corp
Protocol: as §1

PLK3 = target: T4, PLK3 (Homo sapiens, UniProt Q9H4B4); test: Kinase panel screen (Kinase HotSpot), single dose 10 µM: PLK3; type: biochemical
T4 construct: purchased Reaction Biology Corp
Protocol: as §1

other protein kinases = test: Kinase panel screen (Kinase HotSpot), single dose 10 µM: other kinases of the 30-kinase panel; type: biochemical
Protocol: as §1

PLK1 [3] = target: T2, PLK1; set-up: method as in ref 17 (a number printed in a supplementary file, which may have a reference list of its own: not looked up in the article's list); conditions: Table S2, Plk1, cited from earlier work
PLK1 [4] = target: T2, PLK1; conditions: in words; cited from earlier work

T1 sequence (P53350 whole entry): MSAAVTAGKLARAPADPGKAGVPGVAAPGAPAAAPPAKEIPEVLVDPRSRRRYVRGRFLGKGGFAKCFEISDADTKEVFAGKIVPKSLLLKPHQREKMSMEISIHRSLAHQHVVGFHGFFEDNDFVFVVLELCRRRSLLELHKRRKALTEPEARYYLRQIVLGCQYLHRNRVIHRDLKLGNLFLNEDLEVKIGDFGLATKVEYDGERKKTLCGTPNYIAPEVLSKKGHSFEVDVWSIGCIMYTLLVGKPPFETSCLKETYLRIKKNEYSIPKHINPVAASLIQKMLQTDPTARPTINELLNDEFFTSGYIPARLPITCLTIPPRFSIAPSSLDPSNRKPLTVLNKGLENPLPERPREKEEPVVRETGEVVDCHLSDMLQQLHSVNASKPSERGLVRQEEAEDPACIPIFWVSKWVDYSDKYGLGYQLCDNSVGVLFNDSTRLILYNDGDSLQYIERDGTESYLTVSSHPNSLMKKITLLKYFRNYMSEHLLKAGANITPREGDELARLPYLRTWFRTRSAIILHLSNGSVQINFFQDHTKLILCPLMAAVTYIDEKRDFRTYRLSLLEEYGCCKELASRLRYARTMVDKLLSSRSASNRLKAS
T2 sequence (P53350 whole entry): as above
T3 sequence (Q9NYY3 whole entry): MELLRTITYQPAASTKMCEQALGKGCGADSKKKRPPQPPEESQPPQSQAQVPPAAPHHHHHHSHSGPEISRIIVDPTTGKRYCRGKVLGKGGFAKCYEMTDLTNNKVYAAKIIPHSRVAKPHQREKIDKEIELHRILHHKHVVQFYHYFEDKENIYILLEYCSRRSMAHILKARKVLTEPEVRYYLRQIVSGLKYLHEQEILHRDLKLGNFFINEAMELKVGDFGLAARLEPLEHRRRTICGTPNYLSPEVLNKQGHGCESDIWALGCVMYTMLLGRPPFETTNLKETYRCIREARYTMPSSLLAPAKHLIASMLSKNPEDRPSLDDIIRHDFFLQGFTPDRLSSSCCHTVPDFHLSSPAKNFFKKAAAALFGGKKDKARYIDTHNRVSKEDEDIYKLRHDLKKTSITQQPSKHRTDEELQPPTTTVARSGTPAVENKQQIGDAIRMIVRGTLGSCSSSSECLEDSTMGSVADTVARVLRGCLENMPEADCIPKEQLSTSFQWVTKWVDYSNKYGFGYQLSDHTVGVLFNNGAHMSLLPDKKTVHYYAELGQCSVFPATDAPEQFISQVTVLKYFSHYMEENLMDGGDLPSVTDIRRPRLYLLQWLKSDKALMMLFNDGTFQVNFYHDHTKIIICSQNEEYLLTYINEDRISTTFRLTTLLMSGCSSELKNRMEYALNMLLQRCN
T4 sequence (Q9H4B4 whole entry): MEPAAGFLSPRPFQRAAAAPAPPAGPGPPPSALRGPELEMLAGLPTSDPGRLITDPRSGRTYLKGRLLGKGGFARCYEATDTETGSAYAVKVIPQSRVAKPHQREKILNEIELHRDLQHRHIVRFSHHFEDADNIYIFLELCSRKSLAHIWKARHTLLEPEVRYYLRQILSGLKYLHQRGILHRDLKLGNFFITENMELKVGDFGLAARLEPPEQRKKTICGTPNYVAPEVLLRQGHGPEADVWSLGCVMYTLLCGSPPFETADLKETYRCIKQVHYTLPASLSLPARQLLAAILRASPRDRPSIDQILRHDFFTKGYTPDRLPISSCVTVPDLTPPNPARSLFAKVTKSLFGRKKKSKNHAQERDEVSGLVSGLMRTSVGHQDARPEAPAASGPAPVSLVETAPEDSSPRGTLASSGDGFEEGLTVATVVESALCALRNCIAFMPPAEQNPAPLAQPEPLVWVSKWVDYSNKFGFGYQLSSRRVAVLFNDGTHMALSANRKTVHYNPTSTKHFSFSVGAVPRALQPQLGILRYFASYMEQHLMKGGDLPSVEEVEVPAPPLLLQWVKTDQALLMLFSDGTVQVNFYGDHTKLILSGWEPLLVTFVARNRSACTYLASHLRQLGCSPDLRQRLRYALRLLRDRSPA

SMILES: NC(=O)c1nn(-c2ccnc(NC3CCNCC3)c2)cc1OCc1ccccc1 [Compound 9a]
- IC50 (PLK1(h)): > 10000 nM

SMILES: CCOC(=O)c1nn(-c2ccnc(F)c2)cc1O [compound 3]
- IC50 (PLK1 [1]): 430 nM
- Activity pIC50 (PLK1 [1]): 6.3665

SMILES: NC(=O)c1nn(-c2ccnc(Nc3ccccc3)c2)cc1OCc1ccccc1C(F)(F)F [Compound 13b]
- IC50 (PLK1(h)): 847 nM

SMILES: NC(=O)c1nn(-c2ccnc(Nc3ccccc3)c2)cc1OCc1ccc(CO)cc1Cl [Compound 15, 4-((2-chloro-4-(hydroxymethyl)benzyl)oxy)-1-(2-(phenylamino)pyridin-4-yl)-1H-pyrazole-3-carboxamide]
- IC50 (PLK1(h)): 219 nM
- inhibition at 10 µM (PLK1 [2]): 97%
- activity against PLK2 (PLK2): no significant activity
- activity against PLK3 (PLK3): no significant activity
- activity against other protein kinases (other protein kinases): no significant activity
- IC50 (PLK1 [1]): 28 nM
- Activity pIC50 (PLK1 [1]): 7.5528

SMILES: O=Cc1n[nH]c2c1CCc1cnc(Nc3ccccc3)nc1-2 [compound 34]
- IC50 (PLK1 [3]): 248 nM
- Activity pIC50 (PLK1 [3]; pIC50 = −log IC50): 6.6055

SMILES: COc1ccccc1Nc1cc(-n2cc(OCc3ccc(CO)cc3Cl)c(C(N)=O)n2)ccn1 [Compound 17, 4-((2-chloro-4-(hydroxymethyl)benzyl)oxy)-1-(2-((2-methoxyphenyl)amino)pyridin-4-yl)-1H-pyrazole-3-carboxamide]
- IC50 (PLK1(h)): 312 nM
- IC50 (PLK1 [1]): 25 nM
- Activity pIC50 (PLK1 [1]): 7.6021

SMILES: CN1CCN(c2ccc(C(=O)Nc3n[nH]c4c3CN(C(=O)Cc3cccs3)C4)cc2)CC1 [PHA-680626]
- PLK1 IC50s (PLK1 [4]): low nanomolar

Other lines, results leading:

- IC50 (PLK1(h)): 9890 nM
SMILES: NC(=O)c1nn(-c2ccnc(Nc3ccccc3)c2)cc1OCc1ccccc1 [Compound 13a]

- IC50 (PLK1(h)): 1310 nM
SMILES: COc1ccccc1Nc1cc(-n2cc(OCc3ccccc3C(F)(F)F)c(C(N)=O)n2)ccn1 [Compound 14b]

- IC50 (PLK1(h)): > 10000 nM
SMILES: NC(=O)c1nn(-c2ccnc(N[C@H]3CCNC3)c2)cc1OCc1ccccc1 [Compound 10a]

- IC50 (PLK1(h)): 1020 nM
SMILES: COc1ccccc1Nc1cc(-n2cc(OCc3ccccc3)c(C(N)=O)n2)ccn1 [Compound 14a]

- IC50 (PLK1(h)): > 10000 nM
SMILES: NC(=O)c1nn(-c2ccnc(NC3CCOCC3)c2)cc1OCc1ccccc1 [Compound 8a]
